# Experimental data reported in US9365562B2, “1,3 substituted azetidine PDE10 inhibitors” (Merck Sharp & Dohme Corp., priority 2011, dated 2016).
# Biological target: human PDE10A2 (Homo sapiens (Human), UniProt Q9Y233)
# Experiment: PDE10 fluorescence polarization (IMAP FP) inhibition assay
# Format: biochemical
# Conditions: apparent inhibition constant, FAM-labeled cAMP substrate 50 nM, room temperature
# Method: The activity of the compounds in accordance with the present invention as PDE10 inhibitors may be readily determined without undue experimentation using a fluorescence polarization (FP) methodology that is well known in the art (Huang, W., et al., J. Biomol Screen, 2002, 7: 215).
# In a typical experiment the PDE10 inhibitory activity of the compounds of the present invention was determined in accordance with the following experimental method. PDE10A2 was amplified from human fetal brain cDNA (Clontech, Mountain View, Calif.) using a forward primer corresponding to nucleotides 56-77 of human PDE10A2 (Accession No. AF127480, Genbank Identifier 4894716), containing a Kozak consensus sequence, and a reverse primer corresponding to nucleotides 2406-2413 of human PDE10A2 (Accession No. AF127480, Genbank Identifier 4894716). Amplification with Easy-A polymerase (Stratagene, La Jolla, Calif.) was 95° C. for 2 minutes followed by thirty three cycles of 95° C. for 40 seconds, 55° C. for 30 seconds, and 72° C. for 2 minutes 48 seconds. Final extension was 72° C. for 7 minutes. The PCR product was TA cloned into pcDNA3.2-TOPO (Invitrogen, Carlsbad, Calif.) according to standard protocol. AD293 cells with 70-80% confluency were transiently transfected with human PDE10A2/pcDNA3.2-TOPO using Lipofectamine 2000 according to manufacturer specifications (Invitrogen, Carlsbad, Calif.). Cells were harvested 48 hours post-transfection and lysed by sonication (setting 3, 10×5 sec pulses) in a buffer containing 20 mM HEPES, 1 mM EDTA and protease inhibitor cocktail (Roche). Lysate was collected by centrifugation at 75,000×g for 20 minutes. Supernatant containing the cytoplasmic fraction was used for evaluation of PDE10A2 activity. The fluorescence polarization assay for cyclic nucleotide phosphodiesterases was performed using an IMAP® FP kit supplied by Molecular Devices, Sunnyvale, Calif. (product # R8139). IMAP® technology has been applied previously to phosphodiesterase assays (Huang, W., et al., J. Biomol Screen, 2002, 7: 215). Assays were performed at room temperature in 384-well microtiter plates with an incubation volume of 20.2 μL. Solutions of test compounds were prepared in DMSO and serially diluted with DMSO to yield 8 μL of each of 10 solutions differing by 3-fold in concentration, at 32 serial dilutions per plate. 100% inhibition is determined using a known PDE10 inhibitor, which can be any compound that is present at 5,000 times its Ki value in the assay described as follows, such as papaverine (see Siuciak, et al. Neuropharmacology (2006) 51:386-396; Becker, et al. Behav Brain Res (2008) 186(2):155-60; Threlfell, et al., J Pharmacol Exp Ther (2009) 328(3):785-795), 2-{4-[pyridin-4-yl-1-(2,2,2-trifluoroethyl)-1H-pyrazol-3-yl]phenoxymethyl}quinoline succinic acid or 2-[4-(1-methyl-4-pyridin-4-yl-1H-pyrazol-3-yl)-phenoxymethyl]quinoline succinic acid (see Schmidt, et al. J Pharmacol Exp Ther (2008) 325:681-690; Threlfell, et al., J Pharmacol Exp Ther (2009) 328(3): 785-795). 0% of inhibition is determined by using DMSO (1% final concentrations). A Labcyte Echo 555 (Labcyte, Sunnyvale, Calif.) is used to dispense […] from each well of the titration plate to the 384 well assay plate. A solution of enzyme (1/7000 dilution from aliquots; sufficient to produce 20% substrate conversion) and a separate solution of FAM-labeled cAMP PDE from Molecular Devices (product # R7506), at a final concentration of 50 nM are made in the assay buffer (10 mM Tris HCl, pH 7.2, 10 mM MgCl2, 0.05% NaN3 0.01% Tween-20, and 1 mM DTT). The enzyme is added to the assay plates by the addition of 10 μL of enzyme solution to each well, shaken to mix and incubated at room temperature for 60 minutes. The substrate is then added to the assay plates by the addition of 10 μL of substrate solution to each well, shaken to mix, and incubated at room temperature for 60 minutes. […]
# Sequence of human PDE10A2 (Q9Y233 267-1055): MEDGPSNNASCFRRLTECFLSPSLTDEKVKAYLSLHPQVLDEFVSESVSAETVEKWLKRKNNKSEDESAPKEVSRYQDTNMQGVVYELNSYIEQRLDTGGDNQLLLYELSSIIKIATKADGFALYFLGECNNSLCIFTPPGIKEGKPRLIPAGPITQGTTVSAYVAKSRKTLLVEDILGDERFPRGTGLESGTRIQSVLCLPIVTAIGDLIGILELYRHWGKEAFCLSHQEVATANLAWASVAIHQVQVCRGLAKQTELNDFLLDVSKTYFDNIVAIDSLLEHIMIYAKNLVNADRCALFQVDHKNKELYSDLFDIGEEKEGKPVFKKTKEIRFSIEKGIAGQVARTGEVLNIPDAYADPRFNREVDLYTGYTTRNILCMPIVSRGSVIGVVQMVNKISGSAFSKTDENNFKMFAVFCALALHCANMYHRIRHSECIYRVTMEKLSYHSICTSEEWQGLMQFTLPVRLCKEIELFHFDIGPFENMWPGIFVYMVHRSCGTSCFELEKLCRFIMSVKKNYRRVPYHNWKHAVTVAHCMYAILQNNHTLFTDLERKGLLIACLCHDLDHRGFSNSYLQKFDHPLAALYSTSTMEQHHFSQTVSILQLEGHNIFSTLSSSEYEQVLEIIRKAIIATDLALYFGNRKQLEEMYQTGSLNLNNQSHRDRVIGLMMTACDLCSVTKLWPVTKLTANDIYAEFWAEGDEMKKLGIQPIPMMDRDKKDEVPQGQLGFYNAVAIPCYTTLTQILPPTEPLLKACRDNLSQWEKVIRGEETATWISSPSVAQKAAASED
row,SMILES,Ki [nM]
1,"Cc1ccc(-c2nc(C)nn2-c2cc(N3CC(c4nc5ccccc5n4C)C3)nc(C)n2)cn1 [Example 55, 1-methyl-2-(1-(2-methyl-6-(3-methyl-5-(6-methylpyridin-3-yl)-1H-1,2,4-triazol-1-yl)pyrimidin-4-yl)azetidin-3-yl)-1H-benzo[d]imidazole]",10
2,"CCOCCn1c(C2CN(c3cc(-n4nc(C)nc4C)nc(C)n3)C2)nc2ccccc21 [Example 120, 2-(1-(6-(3,5-dimethyl-1H-1,2,4-triazol-1-yl)-2-methylpyrimidin-4-yl)azetidin-3-yl)-1-(2-ethoxyethyl)-1H-benzo[d]imidazole]",8.5
3,"Cc1nc(N2CC(c3nc4ccccc4n3C)C2)cc(-n2nc(C)nc2-c2cccnc2)n1 [Example 52, 1-methyl-2-(1-(2-methyl-6-(3-methyl-5-(pyridin-3-yl)-1H-1,2,4-triazol-1-yl)pyrimidin-4-yl)azetidin-3-yl)-1H-benzo[d]imidazole]",7.5
4,"Cc1nc(-c2ccccc2F)cc(N2CC(c3nc4ccccc4n3C)C2)n1 [Example 90, 2-(1-(6-(2-fluorophenyl)-2-methylpyrimidin-4-yl)azetidin-3-yl)-1-methyl-1H-benzo[d]imidazole]",15
5,"Cc1nc(-c2cccnc2)cc(N2CC(c3nc4ccccc4n3C)C2)n1 [Example 81, 1-methyl-2-(1-(2-methyl-6-(pyridin-3-yl)pyrimidin-4-yl)azetidin-3-yl)-1H-benzo[d]imidazole]",76
6,"Cc1ccc(-c2cc(N3CC(c4nc5ccccc5n4C)C3)nc(C)n2)c(F)n1 [Example 85, 2-(1-(6-(2-fluoro-6-methylpyridin-3-yl)-2-methylpyrimidin-4-yl)azetidin-3-yl)-1-methyl-1H-benzo[d]imidazole]",8
7,"CC(=O)c1ccnc(-c2cc(N3CC(c4nc5ccccc5n4C)C3)nc(C)n2)c1 [Example 101, 1-(2-(2-methyl-6-(3-(1-methyl-1H-benzo[d]imidazol-2-yl)azetidin-1-yl)pyrimidin-4-yl)pyridin-4-yl)ethanone]",31
8,"Cc1nc(N2CC(c3nc4ccccc4n3C)C2)cc(-n2nc(C)nc2-c2ccc(C#N)cc2)n1 [Example 54, 4-(3-methyl-1-(2-methyl-6-(3-(1-methyl-1H-benzo[d]imidazol-2-yl)azetidin-1-yl)pyrimidin-4-yl)-1H-1,2,4-triazol-5-yl)benzonitrile]",16
9,"Cc1ccc(C2CN(c3cc(-n4nc(C)nc4C)nc(C)n3)C2)nc1 [Example 126, 4-(3,5-Dimethyl-1H-1,2,4-triazol-1-yl)-2-methyl-6-[3-(5-methylpyridin-2-yl)azetidin-1-yl]pyrimidine]",407
10,"Cc1nc(N2CC(c3nc4c(C)cccc4n3C)C2)cc(-n2nc(C)nc2C)n1 [Example 124, 2-(1-(6-(3,5-dimethyl-1H-1,2,4-triazol-1-yl)-2-methylpyrimidin-4-yl)azetidin-3-yl)-1,4-dimethyl-1H-benzo[d]imidazole]",22

# These reach a lower Ki. Values come first.
row,Ki [nM],SMILES
1,5.8,"Cc1nc(N2CC(c3nc4ccccc4[nH]3)C2)cc(-n2nc(C)nc2C)n1 [Example 107, 2-(1-(6-(3,5-Dimethyl-1H-1,2,4-triazol-1-yl)-2-methylpyrimidin-4-yl)azetidin-3-yl)-1H-benzo[d]imidazole]"
2,2.5,"COCc1nc(C)nn1-c1cc(N2CC(c3nc4ccccc4n3C)C2)nc(C2CC2)n1 [Example 65, 2-(1-(2-cyclopropyl-6-(5-(methoxymethyl)-3-methyl-1H-1,2,4-triazol-1-yl)pyrimidin-4-yl)azetidin-3-yl)-1-methyl-1H-benzo[d]imidazole]"
3,0.93,"Cc1nc(N2CC(c3nc4ccccc4n3C)C2)cc(-n2nc(C)c(C)c2C)n1 [Example 9, 1-methyl-2-(1-(2-methyl-6-(3,4,5-trimethyl-1H-pyrazol-1-yl)pyrimidin-4-yl)azetidin-3-yl)-1H-benzo[d]imidazole]"
4,0.38,"Cc1nc(C)n(-c2cc(N3CC(c4nc5ccccc5n4C)C3)nc(OC(C)C)n2)n1 [Example 70, 2-{1-[6-(3,5-dimethyl-1H-1,2,4-triazol-1-yl)-2-isopropoxypyimidin-4-yl]azetidin-3-yl}-1-methyl-1H-benzimidazole]"
5,5.5,"Cc1cccc(-c2cc(N3CC(c4nc5ccccc5n4C)C3)nc(C)n2)n1 [Example 98, 1-methyl-2-(1-(2-methyl-6-(6-methylpyridin-2-yl)pyrimidin-4-yl)azetidin-3-yl)-1H-benzo[d]imidazole]"
6,1.8,"Cc1nc(C2CCOCC2)n(-c2cc(N3CC(c4nc5ccccc5n4C)C3)nc(C(F)(F)F)n2)n1 [Example 69, 1-methyl-2-(1-(6-(3-methyl-5-(tetrahydro-2H-pyran-4-yl)-1H-1,2,4-triazol-1-yl)-2-(trifluoromethyl)pyrimidin-4-yl)azetidin-3-yl)-1H-benzo[d]imidazole]"
7,2.6,"CCOC(=O)Cc1nc(C)nn1-c1cc(N2CC(c3nc4ccccc4n3C)C2)nc(C)n1 [Example 44, ethyl 2-(3-methyl-1-(2-methyl-6-(3-(1-methyl-1 benzo[d]imidazol-2-yl)azetidin-1-yl)pyrimidin-4-yl)-1H-1,2,4-triazol-5-yl)acetate]"
8,7.1,"Cc1nc(N2CC(c3nc4cccc(F)c4n3C)C2)cc(-n2nc(C)nc2C)n1 [Example 123, 2-(1-(6-(3,5-dimethyl-1H-1,2,4-triazol-1-yl)-2-methylpyrimidin-4-yl)azetidin-3-yl)-7-fluoro-1-methyl-1H-benzo[d]imidazole]"
9,0.2,"CSc1nc(N2CC(c3nc4ccccc4n3C)C2)cc(-n2nc(C)nc2C)n1 [Example 23, 2-(1-(6-(3,5-dimethyl-1H-1,2,4-triazol-1-yl)-2-(methylthio)pyrimidin-4-yl)azetidin-3-yl)-1-methyl-1H-benzo[d]imidazole]"
10,4.7,"COc1ccn(-c2cc(N3CC(c4nc5ccccc5n4C)C3)nc(C)n2)n1 [Example 12, 2-(1-(6-(3-methoxy-1H-pyrazol-1-yl)-2-methylpyrimidin-4-yl)azetidin-3-yl)-1-methyl-1H-benzo[d]imidazole]"
11,1.5,"COCc1nc(C)nn1-c1cc(N2CC(c3nc4ccccc4n3C)C2)nc(C)n1 [Example 59, 2-(1-{6-[5-(methoxymethyl)-3-methyl-1H-1,2,4-triazol-1-yl]-2-methylpyrimidin-4-yl}azetidin-3-yl)-1-methyl-1H-benzimidazole]"
12,1.8,"COC(=O)c1nc(N2CC(c3nc4ccccc4n3C)C2)cc(-n2nc(C)nc2C)n1 [Example 24, methyl 4-(3,5-dimethyl-1H-1,2,4-triazol-1-yl)-6-(3-(1-methyl-1H-benzo[d]imidazol-2-yl)azetidin-1-yl)pyrimidine-2-carboxylate]"
13,0.81,"CCc1nc(C)nn1-c1cc(N2CC(c3nc4ccccc4n3C)C2)nc(C)n1 [Example 35, 2-(1-(6-(5-ethyl-3-methyl-1H-1,2,4-triazol-1-yl)-2-methylpyrimidin-4-yl)azetidin-3-yl)-1-methyl-1H-benzo[d]imidazole]"
14,1.9,"COCCc1nc(C)nn1-c1cc(N2CC(c3nc4ccccc4n3C)C2)nc(C)n1 [Example 42, 2-(1-(6-(5-(2-methoxyethyl)-3-methyl-1H-1,2,4-triazol-1-yl)-2-methylpyrimidin-4-yl)azetidin-3-yl)-1-methyl-1H-benzo[d]imidazole]"
